Data taken from patent EP2526935A1, “Hydrazidomycins” (Oncotest GmbH, priority 2011, dated 2012).

Legend:
Format in all cases: cell-based
Pseudomonas aeruginosa = assay: antimicrobial activity test; settings: at a concentration of 1.0 mg/mL
Escherichia coli = assay: antimicrobial activity test; settings: at a concentration of 1.0 mg/mL
Staphylococcus aureus = assay: antimicrobial activity test; settings: at a concentration of 1.0 mg/mL
[1] = tested on: panel of 12 human tumor cell lines; assay: modified propidium iodide cytotoxicity assay, panel of 12 human tumor cell lines; settings: for IC50: geometric mean over panel of 12 human tumor cell lines, read-out: Cytotoxic potency (geometric mean IC50)
From the text: (§1) Antiproliferative and cytotoxic assays. A modified propidium iodide assay was used to determine the cytotoxic activity of compounds hydrazidomycin A, B, and C against 12 to 42 cell lines derived from solid human tumors. The test procedure has been as is known in the art. Cell lines tested were derived from patient tumors engrafted as a subcutaneously growing tumor in NMRI nu/nu mice, or obtained from the American Type Culture Collection, Rockville, MD, USA, National Cancer Institute, Bethesda, MD, USA, or Deutsche Sammlung von Mikroorganismen und Zellkulturen, Braunschweig. The IC50 was determined by four parameter non-linear curve fit after plotting compound concentration versus fluorescence intensity, and is given as the concentration of test compound that gives a response (inhibition of cell growth) half way between the top and bottom plateau of the sigmoidal concentration-response curve (i.e. the inflection point of the curve).

Enterococcus faecalis = assay: antimicrobial activity test; settings: at a concentration of 1.0 mg/mL
[2] = tested on: panel of 42 human tumor cell lines; assay: modified propidium iodide cytotoxicity assay, panel of 42 human tumor cell lines
From the text: as §1

HCT-116 = assay: modified propidium iodide cytotoxicity assay; settings: Homo sapiens, Colon
From the text: as §1

TE671 = assay: modified propidium iodide cytotoxicity assay; settings: Homo sapiens, TE-671, Sarcoma
From the text: as §1

MAXF 401NL = assay: modified propidium iodide cytotoxicity assay; settings: Homo sapiens, Breast
From the text: as §1

CAL-27 = assay: modified propidium iodide cytotoxicity assay; settings: Homo sapiens, Head and neck
From the text: as §1

RXF 393NL = assay: modified propidium iodide cytotoxicity assay; settings: Homo sapiens, Kidney
From the text: as §1

PANC-1 = assay: modified propidium iodide cytotoxicity assay; settings: Homo sapiens, Pancreas
From the text: as §1

PXF 1118L = assay: modified propidium iodide cytotoxicity assay; settings: Homo sapiens, Mesothelioma
From the text: as §1

Saos-2 = assay: modified propidium iodide cytotoxicity assay; settings: Homo sapiens, Sarcoma
From the text: as §1

MEXF 462NL = assay: modified propidium iodide cytotoxicity assay; settings: Homo sapiens, Melanoma
From the text: as §1

LXFA 526L = assay: modified propidium iodide cytotoxicity assay; settings: Homo sapiens, Lung, non-small cell
From the text: as §1

CXF 269L = assay: modified propidium iodide cytotoxicity assay; settings: Homo sapiens, Colon
From the text: as §1

RXF 486L = assay: modified propidium iodide cytotoxicity assay; settings: Homo sapiens, Kidney
From the text: as §1

LXFA 289L = assay: modified propidium iodide cytotoxicity assay; settings: Homo sapiens, Lung, non-small cell
From the text: as §1

PXF 698L = assay: modified propidium iodide cytotoxicity assay; settings: Homo sapiens, Mesothelioma
From the text: as §1

LXFA 629L = assay: modified propidium iodide cytotoxicity assay; settings: Homo sapiens, Lung, non-small cell
From the text: as §1

PAXF 1657L = assay: modified propidium iodide cytotoxicity assay; settings: Homo sapiens, Pancreas
From the text: as §1

LXFL 529L = assay: modified propidium iodide cytotoxicity assay; settings: Homo sapiens, Lung, non-small cell
From the text: as §1

MKN45 = assay: modified propidium iodide cytotoxicity assay; settings: Homo sapiens, MKN-45, Stomach
From the text: as §1

LIXF 575L = assay: modified propidium iodide cytotoxicity assay; settings: Homo sapiens, Liver
From the text: as §1

HT-29 = assay: modified propidium iodide cytotoxicity assay; settings: Homo sapiens, Colon
From the text: as §1

OVXF 899L = assay: modified propidium iodide cytotoxicity assay; settings: Homo sapiens, Ovary
From the text: as §1

MCF-7 = assay: modified propidium iodide cytotoxicity assay; settings: Homo sapiens, MCF7, Breast
From the text: as §1

LXFL1121L = assay: modified propidium iodide cytotoxicity assay; settings: Homo sapiens, LXFL 1121L, Lung, non-small cell
From the text: as §1

PAXF 546L = assay: modified propidium iodide cytotoxicity assay; settings: Homo sapiens, Pancreas
From the text: as §1

BXF 1218L = assay: modified propidium iodide cytotoxicity assay; settings: Homo sapiens, Bladder
From the text: as §1

UXF 1138L = assay: modified propidium iodide cytotoxicity assay; settings: Homo sapiens, Uterus
From the text: as §1

NCI-H460 = assay: modified propidium iodide cytotoxicity assay; settings: Homo sapiens, Lung, non-small cell
From the text: as §1

NIH:OVCAR-3 = assay: modified propidium iodide cytotoxicity assay; settings: Homo sapiens, Ovary
From the text: as §1

PC-3M = assay: modified propidium iodide cytotoxicity assay; settings: Homo sapiens, Prostate
From the text: as §1

22Rv1 = assay: modified propidium iodide cytotoxicity assay; settings: Homo sapiens, Prostate
From the text: as §1

MDA-MB-231 = assay: modified propidium iodide cytotoxicity assay; settings: Homo sapiens, Breast
From the text: as §1

LNCaP = assay: modified propidium iodide cytotoxicity assay; settings: Homo sapiens, Prostate
From the text: as §1

RKO = assay: modified propidium iodide cytotoxicity assay; settings: Homo sapiens, Colon
From the text: as §1

DU-145 = assay: modified propidium iodide cytotoxicity assay; settings: Homo sapiens, Prostate
From the text: as §1

MEXF 276L = assay: modified propidium iodide cytotoxicity assay; settings: Homo sapiens, MEXF276L, Melanoma
From the text: as §1

DIFI = assay: modified propidium iodide cytotoxicity assay; settings: Homo sapiens, Colon
From the text: as §1

BXF 1352L = assay: modified propidium iodide cytotoxicity assay; settings: Homo sapiens, Bladder
From the text: as §1

GXF 251L = assay: modified propidium iodide cytotoxicity assay; settings: Homo sapiens, Stomach
From the text: as §1

T-24 = assay: modified propidium iodide cytotoxicity assay; settings: Homo sapiens, Bladder
From the text: as §1

PXF 1752L = assay: modified propidium iodide cytotoxicity assay; settings: Homo sapiens, Mesothelioma
From the text: as §1

RXF 1781L = assay: modified propidium iodide cytotoxicity assay; settings: Homo sapiens, Kidney
From the text: as §1

MEXF 1341L = assay: modified propidium iodide cytotoxicity assay; settings: Homo sapiens, Melanoma
From the text: as §1

Mycobacerium vaccae = assay: antimicrobial activity test; settings: at a concentration of 1.0 mg/mL
Bacillus subtilis = assay: antimicrobial activity test; settings: at a concentration of 1.0 mg/mL

CCCCCCC/C=C\CCCCC/C=C\N(NC(=O)COC)C(=O)CCCCCCCCC [Hydrazidomycin B, hydrazidomycin B]
antimicrobial activity (Pseudomonas aeruginosa): no antimicrobial activity | antimicrobial activity (Escherichia coli): no antimicrobial activity | antimicrobial activity (Staphylococcus aureus): no antimicrobial activity | IC50 [1]: 6.04 µM | antimicrobial activity (Enterococcus faecalis): no antimicrobial activity | IC50 ([2]; Homo sapiens, mean over panel of 42 tumor cell lines, 15 histotypes): 10.7 µM | IC50 values in sensitive cell lines, fold lower than the mean IC50 of all cell lines tested ([2]; on average, sensitive cell lines versus all cell lines): ~8 fold | IC50 (HCT-116): 19.4 µM | IC50 (TE671): 18.2 µM | IC50 (MAXF 401NL): 0.876 µM | IC50 (CAL-27): 12.7 µM | IC50 (RXF 393NL): 11 µM | IC50 (PANC-1): 10 µM | IC50 (PXF 1118L): 30 µM | IC50 (Saos-2): 18 µM | IC50 (MEXF 462NL): 20.4 µM | IC50 (LXFA 526L): 7.07 µM | IC50 (CXF 269L): 5.94 µM | IC50 (RXF 486L): 21.2 µM | IC50 (LXFA 289L): 12.6 µM | IC50 (PXF 698L): 14.3 µM | IC50 (LXFA 629L): 1.41 µM | IC50 (PAXF 1657L): 20.4 µM | IC50 (LXFL 529L): 17.3 µM | IC50 (MKN45): 11.6 µM | IC50 (LIXF 575L): 7.39 µM | IC50 (HT-29): 6.54 µM | IC50 (OVXF 899L): 19.1 µM | IC50 (MCF-7): 11 µM | IC50 (LXFL1121L): 17.4 µM | IC50 (PAXF 546L): 10.8 µM | IC50 (BXF 1218L): 19.3 µM | IC50 (UXF 1138L): 18.2 µM | IC50 (NCI-H460): 17.2 µM | IC50 (NIH:OVCAR-3): 18.5 µM | IC50 (PC-3M): 1.73 µM | IC50 (22Rv1): 15.6 µM | IC50 (MDA-MB-231): 5.53 µM | IC50 (LNCaP): 14.1 µM | IC50 (RKO): 13.8 µM | IC50 (DU-145): 7.22 µM | IC50 (MEXF 276L): 18.3 µM | IC50 (DIFI): 10.2 µM | IC50 (BXF 1352L): 15.1 µM | IC50 (GXF 251L): 1.54 µM | IC50 (T-24): 9.19 µM | IC50 (PXF 1752L): 12.7 µM | IC50 (RXF 1781L): 10.2 µM | IC50 (MEXF 1341L): 14.9 µM | antimicrobial activity (Mycobacerium vaccae): no antimicrobial activity | antimicrobial activity (Bacillus subtilis): no antimicrobial activity

CCCCC/C=C\C/C=C\CCCC/C=C\N(NC(=O)COC)C(=O)CCCCCCCCC [Hydrazidomycin C, hydrazidomycin C]
antimicrobial activity (Pseudomonas aeruginosa): no antimicrobial activity | antimicrobial activity (Escherichia coli): no antimicrobial activity | antimicrobial activity (Staphylococcus aureus): no antimicrobial activity | IC50 [1]: > 10 µM | inhibition of tumor cell growth ([1]; up to a concentration of 10 µM): did not show inhibition of tumor cell growth | antimicrobial activity (Enterococcus faecalis): no antimicrobial activity | antimicrobial activity (Mycobacerium vaccae): no antimicrobial activity | antimicrobial activity (Bacillus subtilis): no antimicrobial activity
